Assay results taken from patent US20230321012A1 (priority 2021, published 2023).

What was measured:
[1] = AMXT 1501 level in tumor biopsy of a melanoma patient; conditions: male, human, in vivo
[2] = system: polyamine transport in T cells (CD4+ and CD4- lymphocytes, whole human blood); assay: Ex vivo blood-based PD bioassay: C5 (fluorescent spermine) uptake into stimulated T cells by FACS; type: cell-based
Procedure: To evaluate the target engagement activity of AMXT 1501 after oral administration in human patients, an ex vivo PD assay assessing lymphocyte spermine uptake and inhibition of uptake by AMXT 1501 was developed. Briefly, uptake of a fluorescent-labeled spermine analog conjugate (Fl-Spm, Compound 5, C5, Annereau, J. P., et al., A fluorescent biomarker of the polyamine transport system to select patients with AML for F14512 treatment. Leuk Res. 2010 October; 34(10):1383-9) was assayed by fluorescence-activated cell sorting (FACS) analysis in CD4+ and CD4^− T cells in human blood samples stimulated with anti-CD3+ and anti-CD28+ antibodies.
Polyamine uptake in blood lymphocytes (CD4^+ or CD8^+ T cells) was measured at the same time points as the PK levels for AMXT 1501 were measured. Comparisons were made between uptake in the pre-treatment sample and samples taken over time following dosing.
Pharmacodynamic Bioassay. The purpose of this whole blood assay was to quantify the inhibition of polyamine transport in T cells in human subjects receiving AMXT 1501. Collected whole blood from subjects receiving AMXT 1501 was diluted with serum-free media and stimulated with anti-CD3 (T cell receptor engagement) and anti-CD28 (co-stimulatory signal) to drive T cell activation and proliferation for a total of three days. During the last 12-18 hours of culture, a fluorescently-labeled spermine analog (Fl-Spm, Compound 5, C5) was added to the in vitro culture to monitor polyamine uptake into cells. The functional activity (e.g., inhibitory effect) of AMXT 1501 on C5 uptake by T cells was then determined using flow cytometry by measuring the frequency and median fluorescence intensity (MFI) of C5 in T cells. Activation and proliferation of T cells is required for the uptake of C5; however, in the presence of high concentrations of AMXT 1501 in vitro, C5 uptake is inhibited despite active proliferation of T cells. Therefore, a whole blood sample spiked with high levels of AMXT 1501 prior to culture will be used as a positive control for each subject in this assay. […]

[3] = Clinical plasma pharmacokinetics of oral DFMO (NCT03536728); type: in vivo; conditions: human
From the text: Clinical Trial Outline. […] All solid tumor types are eligible for the trial. […] DFMO was delivered orally twice daily in gel capsules.

NCI 60-cell line panel = conditions: used up to 5 mM, any cell line tested; cited from earlier work

Row | AUC ([3]; 500 mg/day split BID, Day 28, n=14) | Cmax ([3]; 7-day repeat dosing of 1000 mg split BID, Cohort 3, n=6) | Structure (SMILES) | Kp [1] | EC50 ([2]; Homo sapiens, T-cell, read-out: ED50, inhibition of fluorescent-labeled spermine uptake) | ex vivo target engagement activity in patient whole blood ([2]; several Part 2 Cohort 3 patients, Day 7-8, oral AMXT 1501 dicaprate, preliminary) | concentration of maximal fluorescent-labeled spermine uptake inhibition ([2]; whole human blood, absence of DFMO) | growth inhibitory effect (NCI 60-cell line panel)
1 | – | – | CCCCCCCCCCCCCCCC(=O)NCCCC[C@@H](N)C(=O)NCCCNCCCCNCCCN [AMXT 1501, D-lys(palmitoyl)-spermine] | 14.6 | ~75 nM | sustained AMXT 1501 target engagement activity | 250 nM | –
2 | 11400 ng·h/mL | 4440 ng/mL | NCCCC(N)(C(=O)O)C(F)F (stereo not shown) [DFMO, difluoromethylornithine] | – | – | – | – | no growth inhibitory effect
